For assay [1], the target named is T1, InhA^WT (Mycobacterium tuberculosis, UniProt P9WGR1). The class given is biochemical.
Assay [2] addresses T1, InhA^WT. The class given is binding.
The next assay deals with InhA. The conditions noted are these: cited from earlier work.

Structures are written as SMILES. Several values for one entry are separate records, joined by “and”; a condition that tells them apart may be missing. Equal values may be shown once. Read-outs that look alike come from different tables or passages of the source.

T1 sequence (P9WGR1 whole entry, looked up): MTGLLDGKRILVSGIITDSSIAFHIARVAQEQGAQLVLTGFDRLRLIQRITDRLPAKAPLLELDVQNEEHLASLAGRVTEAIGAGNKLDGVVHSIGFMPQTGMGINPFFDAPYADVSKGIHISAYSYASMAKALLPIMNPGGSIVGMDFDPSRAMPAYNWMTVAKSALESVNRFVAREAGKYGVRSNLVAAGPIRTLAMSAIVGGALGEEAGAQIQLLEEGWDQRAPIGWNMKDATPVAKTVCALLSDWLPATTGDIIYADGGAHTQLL

For `CCCCCCc1ccc(Oc2ccccc2C)c(O)c1` [PT70, 2-(o-tolyoxy)-5-hexylphenol], at InhA^WT [1], the “Ki^app/Ki*^app” value was 10.8, the k5 was 0.40 ± 0.01 min⁻¹, the k6 was 0.025 ± 0.002 min⁻¹ and the “tR (1/k6)” value worked out at 40 ± 2 min. In addition, the ΔΔG on InhA^WT [1] was 1.41 and 1.41 kcal mol^−1. Further, the Ki on InhA^WT [1] (read-out: Ki*^app) is 24 nM and 23.7 nM. Besides, the Ki at InhA^WT [1] (read-out: Ki^app) came to 256 ± 38 nM. For the same compound, the “tR (^32P- NAD)” value on InhA^WT [2] is reported as 37 ± 2 min. The residence time in the assay on InhA is given as 40 min. Moreover, the Ki at InhA (slow-onset, tight binding inhibitor) was 0.6 nM.

For the compound `Cc1ccccc1Oc1ccc(Cn2cc(-c3ccccc3)nn2)cc1O` [PT163, 5-((4-phenyl-1H-1,2,3-triazol-1-yl)methyl)-2-(o-tolyloxy)phenol], at InhA^WT [1], the k5 was 0.44 ± 0.06 min⁻¹, the k6 turned out to be 0.011 ± 0.001 min⁻¹, the “tR (1/k6)” value is 94 ± 3 min and the ΔΔG was found to be 2.26 kcal/mol. In addition, on InhA^WT [2], the “tR (^32P- NAD)” value is 114 min and 114 ± 18 min.
